Laboratory results as given in publication PMC9627161 (Frontiers in Pharmacology, 2022).
Peptide text beside a SMILES is read from it.

Legend:
[1] = system: SARS-CoV-2 pseudovirus; conditions: 1 h, 5 μM
[2] = biological target: Mpro (Severe acute respiratory syndrome coronavirus 2, UniProt P0DTD1); assay: MST binding to Mpro protein; design: species or system SARS-CoV-2; conditions: mean ± SD (n = 3)
[3] = biological target: RBD (Severe acute respiratory syndrome coronavirus 2, UniProt P0DTC2); assay: MST binding to RBD protein; design: species or system SARS-CoV-2; conditions: mean ± SD (n = 3)
Procedure: To detect the interaction between the peptides and RBD/Mpro, the MST experiments were performed using the Monolith NT.115 instrument. RBD and Mpro proteins were labeled with the Lys labeling kit, respectively. In the assay, the final concentration of the labeled protein was 50 nM, and the peptides were gradient-diluted in 1:1 dilution and starting from 12.5 μM. After brief incubation in MST buffer, the samples were loaded into MST-standard glass capillaries. All the measurements were performed in triplicate using automatically assigned 50% MST power and 20% LED power.

| Compound | inhibition against pseudotyped SARS-CoV-2 virus [1] | Mpro, Kd [2] | Mpro, Kd ([2]; listed as peptide-5) | RBD, Kd [3] | RBD, Kd ([3]; listed as peptide-21) |
| --- | --- | --- | --- | --- | --- |
| CC[C@H](C)[C@H](N)C(=O)N[C@@H](CCC(=O)O)C(=O)N[C@@H](CCC(=O)O)C(=O)N[C@@H](CCC(N)=O)C(=O)N[C@@H](C)C(=O)N[C@@H](CCCCN)C(=O)N[C@H](C(=O)N[C@@H](Cc1ccccc1)C(=O)N[C@@H](CC(C)C)C(=O)N[C@@H](CC(=O)O)C(=O)N[C@@H](CCCCN)C(=O)N[C@@H](Cc1ccccc1)C(=O)N[C@@H](CC(N)=O)C(=O)N[C@@H](Cc1c[nH]cn1)C(=O)N[C@@H](CCC(=O)O)C(=O)N[C@@H](CCCCN)C(=O)N[C@@H](CCC(=O)O)C(=O)N[C@@H](CC(=O)O)C(=O)N[C@@H](CC(C)C)C(=O)N[C@@H](CCC(=O)O)C(=O)N[C@@H](Cc1ccc(O)cc1)C(=O)N[C@@H](CCC(N)=O)C(=O)N[C@@H](CO)C(=O)N[C@@H](CO)C(=O)N[C@@H](CC(C)C)C(=O)N[C@@H](C)C(=O)N[C@@H](CO)C(=O)N[C@@H](Cc1c[nH]c2ccccc12)C(=O)N[C@@H](CC(N)=O)C(=O)N[C@@H](Cc1ccc(O)cc1)C(=O)N[C@@H](CC(N)=O)C(=O)N[C@H](C(=O)N[C@@H](CC(N)=O)C(=O)N[C@H](C(=O)N[C@H](C(=O)O)[C@@H](C)O)[C@@H](C)CC)[C@@H](C)O)[C@@H](C)O [Peptide-5] (H-IEEQAKTFLDKFNHEKEDLEYQSSLASWNYNTNIT-OH; N-terminus and C-terminus assumed) | about 40% | no binding | no binding affinity |  |  |
| CC(=O)N[C@@H](CO)C(=O)N[C@H](C(=O)N[C@@H](CO)C(=O)N[C@@H](C)C(=O)N[C@H](C(=O)N[C@@H](CC(C)C)C(=O)N[C@@H](CCC(N)=O)C(=O)N[C@@H](CO)C(=O)NCC(=O)N[C@@H](Cc1ccccc1)C(=O)N[C@@H](CCCNC(=N)N)C(=O)N[C@@H](CCCCN)C(=O)N[C@@H](Cc1ccccc1)C(N)=O)C(C)C)[C@@H](C)O [Peptide-21] | < 20% |  |  | no binding | no binding affinity |
